Results published in patent US20180117011A1, “ENZALUTAMIDE IN COMBINATION WITH AFURESERTIB FOR THE TREATMENT OF CANCER” (Novartis AG, priority 2013, published 2018).

What was measured:
Type in all cases: cell-based
[1] = tested on: cell signaling in LNCaP cells; assay: Effect on cell signaling (immunoblot assay); conditions: 0.1 nM R1881, 6 hour, FIG. 2
Experimental: LNCaP cells were grown in RPMI 1640 culture medium supplemented with 10% charcoal-stripped fetal bovine serum for 48 hours in 6-well tissue culture plates at a density of 500,000 cells per well. Cells were treated with the indicated compounds for six hours, washed with PBS, and whole cell lysates were prepared in RIPA buffer (Teknova, Hollister, Calif.). Cell lysates were clarified by centrifugation at 20,000 relative centrifugal force, 4° C., and protein was quantified using the BCA Protein Assay Kit (Pierce, Rockford, Ill.). Equal amounts of protein lysates were separated by SDS-PAGE using a 4-12% Bis-Tris polyacrylamide gel (Life Technologies) and transferred to a nitrocellulose membrane and incubated with antibodies against total and phospho-AKT, phospho-PRAS40, total and phospho-S6, androgen receptor, and FKBP5. Following incubation with primary antibody, blots were washed and incubated with IRDye-800 anti-mouse or IRDye-680 anti-rabbit antibodies for 1 h. Following thorough washing, blots were analyzed using an infrared imaging system (LI-COR).

[2] = tested on: LNCaP cells; assay: Cell proliferation assay (CellTiter-Glo, total cellular ATP); conditions: charcoal-stripped serum, 0.1 nM R1881, 7 days; FIG. 1
Experimental: Androgen-dependent prostate cancer cell line, LNCaP, were grown in RPMI 1640 culture medium supplemented with 10% charcoal-stripped fetal bovine serum for 24 hours in 96-well tissue culture plates at a density of 1,000 cells per well. Cells were treated with various concentrations of compounds A or B alone and in combination in presence of synthetic androgen (R1881, Sigma-Aldrich, St. Louis, Mo.). After 7 days, total cellular ATP was measured using the CellTiter-Glo Luminescent Cell Viability Assay (Promega, Madison, Wis.) on an EnVision plate reader. Background counts from wells containing no cells were subtracted and the data is presented as a percentage of the DMSO-treated control cells.

[3] = tested on: VCaP cells; assay: Luminescent caspase 3/7 assay in VCaP cells; conditions: 5 days, FIG. 3B
Experimental: (§1) Tumor cells were seeded in 96-well white tissue culture plates in 100 μL growth media (media with 10% FBS) or CSS media (media with 10% charcoal stripped fetal bovine serum). LNCaP cells were seeded at a density of 1,000 cells per well, whereas, VCaP cells were seeded at 7,500 cells per well. Approximately 24 hr after plating, duplicate or triplicate plates of cells were treated with indicated compounds for both luminescent caspase-3/7 and CTG readings. At the end of the 5 days of incubations, half of the plates were lysed and caspase-3/7 activity was measured using the Caspase-Glo® 3/7 Assay (Promega) according to the manufacturer's protocol. Briefly, Caspase-Glo reagent was added to each plate, incubated for at least 45 minutes, and luminescent signal was read on the EnVision Multilabel Plate Reader with a 0.1 sec integration time. The remaining plates were lysed and ATP levels were measured using the CTG assay. The caspase-3/7 signal was normalized to the ATP signal. The normalized values were expressed as a percentage of the control wells.

[4] = tested on: LNCaP cells; assay: Luminescent caspase 3/7 assay in LNCaP cells; conditions: five days, FIG. 3A
Experimental: as §1

| SMILES | phospho-AKT (T308) ([1]; Compound B 100 or 300 nM alone or with compound A 3 uM) | androgen receptor level ([1]; Compound B 100 or 300 nM) | androgen receptor target gene (FKBP5) expression ([1]; Compound B 100 or 300 nM) | phospho-PRAS40 (AKT downstream substrate) ([1]; Compound B 100 or 300 nM) | phospho-S6 (AKT downstream substrate) ([1]; Compound B 100 or 300 nM) | LNCaP cell growth (anti-proliferative effect) [2] | caspase 3/7 activity induction in VCaP cells, media containing charcoal stripped serum (in words) ([3]; Compound B 1 uM, CSS media) | caspase 3/7 activity induction in VCaP cells, growth media (in words) ([3]; Compound B 1 uM, growth media) | caspase 3/7 activity induction in LNCaP cells ([4]; Compound A 10 uM, Compound B 1 uM, or both, medium not specified) | caspase 3/7 activity induction in LNCaP cells, media containing charcoal stripped serum ([4]; CSS media) | caspase 3/7 activity induction in LNCaP cells, growth media ([4]; growth media (10% FBS)) | caspase 3/7 activity induction in VCaP cells, CSS media ([3]; Compound A 10 uM, CSS media) | caspase 3/7 activity induction in VCaP cells, growth media ([3]; Compound A 10 uM, growth media) |
| --- | --- | --- | --- | --- | --- | --- | --- | --- | --- | --- | --- | --- | --- |
| Cn1ncc(Cl)c1-c1cc(C(=O)N[C@H](CN)Cc2cccc(F)c2)sc1Cl [Compound B, N-{(1S)-2-amino-1-[(3-fluorophenyl)methyl]ethyl}-5-chloro-4-(4-chloro-1-methyl-1H-pyrazol-5-yl)-2-thiophenecarboxamide] | increased | no significant effect | no significant effect | inhibited | inhibited | inhibited | not | strong induction |  |  |  |  |  |
| CNC(=O)c1ccc(N2C(=S)N(c3ccc(C#N)c(C(F)(F)F)c3)C(=O)C2(C)C)cc1F [Compound A, 4-(3-(4-Cyano-3-(trifluoromethyl)phenyl)-5,5-dimethyl-4-oxo-2-thioxoimidazolidin-1-yl)-2-fluoro-N-methylbenzamide, reference compound] |  |  |  |  |  | inhibited |  |  | no induction | strong induction | strong induction | 11 fold | 2 fold |
